Laboratory results reported in patent US20060148871A1, “Metabolic stabilization of substituted adamantane” (priority 2005, published 2006).
Blank lines part the entries; values can stand above or below the compound they belong to.

Tests used:
Type in all cases: in vitro ADME
[1] = Metabolic stability screen, human liver microsomes; details: for HLM % turnover: 10 μM substrate, 30 min, 37° C., 1 mM NADPH
Method: (§1) Each substrate (10 μM) was incubated with microsomal protein (0.1-0.5 mg/ml) in 50 mM potassium phosphate buffer (pH 7.4) in 48-Well plate. The enzyme reaction was initiated by the addition of 1 mM NADPH, then incubated at 37° C. in a Forma Scientific incubator (Marietta, Ohio, USA) with gentle shaking. The reactions were quenched by the addition of 800 μl of ACN/MeOH (1:1, v/v), containing 0.5 μM of internal standard (IS), after 30 min incubation. Samples were then filtered by using Captiva 96-Well Filtration (Varian, Lake Forest, Calif., USA) and analyzed by LC/MS (mass spectrometry). Liver microsomal incubations were conducted in duplicate.
The parent remaining in the incubation mixture was determined by LC/MS. The LC/S system consisted of an Agilent 1100 series (Agilent Technologies, Waldbronn, Germany) and API 2000 (MDS SCIEX, Ontario, Canada). A Luna C8(2) (50×2.0 mm, particle size 3 μm, Phenomenex, Torrance, Calif., USA) was used to quantify each compound at ambient temperature. The mobile phase consisted of (A): 10 mM NH4AC (pH 3.3) and […]: 100% ACN and was delivered at a flow rate of 0.2 ml/min. Elution was achieved using a linear gradient of 0-100% B over 3 min, then held 100% B for 4 min, and returned to 100% A in 1 min. The column was equilibrated for 7 min before the next injection.
(§2) The peak area ratios (each substrate over IS) at each incubation time were expressed as the percentage of the ratios (each substrate over IS) of the control samples (0 min incubation). The parent remaining in the incubation mixture was expressed as the percentage of the values at 0 min incubation. The percentage turnover is calculated using the following equation (Y% turnover=100% […]−X% parent remaining) and is recorded as the percentage turnover in the Table 1.

[2] = In vitro metabolic half-life study, human hepatocytes; details: 1 μM
Method: (§3) Example 5 (1 μM) was incubated with microsomal protein (0.5-1.0 mg/ml) in 50 mM potassium phosphate buffer (pH 7.4). After 5 minutes, preincubation at 37° C. in a shaking water bath, the enzyme reaction was initiated by the addition of 1 mM NADPH. Aliquots (200 μl) were removed and added to 100 μl of ACN/MeOH (1:1, v/v), containing 0.5 μM of IS, at the following time points: 0, 5, 10, 15, 20 and 30 min. Samples were then centrifuged at 14000×g for 10 min and the supernatant was analyzed by LC/MS. Additionally, Example 5 (1 μM) was also incubated with hepatocytes in complete culture medium (Waymouth MB 752/1). The reaction was terminated at 0, 1, 3 and 6 hours with the addition of 250 μl of ACN/MeOH (1:1, v/v). Samples were centrifuged and the supernatant was analyzed by LC/MS as described above. […]
(§4) The parent remaining in the incubation mixture was determined by LC/MS. […] A Luna C8(2) (50×2.0 mm, particle size 3 μm, Phenomenex, Torrance, Calif., USA) was used to quantify each compound at ambient temperature. […]
(§5) In vitro half-life of substrate depletion was determined and converted to hepatic intrinsic clearance (Obach R Scott: Prediction of human clearance of twenty-nine drugs from hepatic microsomal intrinsic clearance data: an examination of in vitro half-life approach and nonspecific binding to microsomes. Drug metabolism and Disposition. 1999, 27:1350-1359).

[3] = In vitro metabolic half-life study, dog liver microsomes
Method: as §3, §4, §5

[4] = In vitro metabolic half-life study, rat liver microsomes; details: 1 μM
Method: as §3, §4, §5

[5] = In vitro metabolic half-life study, dog hepatocytes; details: 1 μM
Method: as §3, §4, §5

[6] = Metabolic stability screen, mouse liver microsomes; details: 10 μM substrate, 30 min, 37° C., 1 mM NADPH
Method: as §1, §4, §2

[7] = In vitro metabolic half-life study, mouse hepatocytes; details: 1 μM
Method: as §3, §4, §5

[8] = In vitro metabolic half-life study, monkey liver microsomes
Method: as §3, §4, §5

[9] = In vitro metabolic half-life study, rat hepatocytes; details: 1 μM
Method: as §3, §4, §5

[10] = In vitro metabolic half-life study, mouse liver microsomes; details: 1 μM
Method: as §3, §4, §5

[11] = In vitro metabolic half-life study, monkey hepatocytes; details: 1 μM
Method: as §3, §4, §5

[12] = Metabolic stability screen, rat liver microsomes; details: 10 μM substrate, 30 min, 37° C., 1 mM NADPH
Method: as §1, §4, §2

[13] = In vitro metabolic half-life study, human liver microsomes; details: 1 μM
Method: as §3, §4, §5

SMILES: O=C(NC1C2CC3CC(C2)CC1C3)C1(c2ccccc2)CC1 (centres unmarked) [Example 3, N-2-adamantyl-1-phenylcyclopropanecarboxamide]
Metabolism in human liver microsomes (HLM), in words [1]: rapidly metabolized | HLM % turnover [1]: 62%

SMILES: O=C(NC1C2CC3CC(C2)CC1C3)C1(c2ccc(Cl)cc2)CC1 (centres unmarked) [Example 4, N-2-adamantyl-1-(4-chlorophenyl)cyclopropanecarboxamide]
Metabolism in human liver microsomes (HLM), in words [1]: rapidly metabolized | HLM % turnover [1]: 68%

SMILES: CC(C)(C(=O)NC1C2CC3CC1CC(C(=O)O)(C3)C2)N1CCN(c2ccc(C(F)(F)F)cn2)CC1 (centres unmarked) [Example 5, E-4-{2-Methyl-2-[4-(5-trifluoromethyl-pyridin-2-yl)-piperazin-1-yl]-propionylamino}-adamantane-1-carboxylic acid]
Hepatocyte intrinsic clearance (CLint) [2]: 1.5 mL/min/kg | HLM % turnover [1]: 0% | Metabolic stability in liver microsomes, in words ([3]; dog liver microsomes): excellent metabolic stability | Liver microsomal intrinsic clearance (CLint) ([3]; dog microsomes, 1 μM): 7.5 mL/min/kg | Liver microsomal intrinsic clearance (CLint) [4]: 40 mL/min/kg | Hepatocyte intrinsic clearance (CLint) [5]: 3.67 mL/min/kg | MLM % turnover [6]: 0% | Hepatocyte intrinsic clearance (CLint) [7]: 13.7 mL/min/kg | Metabolic stability in liver microsomes, in words ([8]; monkey liver microsomes): excellent metabolic stability | Liver microsomal intrinsic clearance (CLint) ([8]; monkey microsomes, 1 μM): 31.5 mL/min/kg | Hepatocyte intrinsic clearance (CLint) [9]: 5.17 mL/min/kg | Liver microsomal intrinsic clearance (CLint) [10]: 127 mL/min/kg | Hepatocyte intrinsic clearance (CLint) [11]: 4.67 mL/min/kg | RLM % turnover [12]: 0% | Liver microsomal intrinsic clearance (CLint) [13]: 4.83 mL/min/kg

Next, values leading:

Metabolism in human liver microsomes (HLM), in words [1]: rapidly metabolized | HLM % turnover [1]: 83%
SMILES: CC(C)(C(=O)NC1C2CC3CC(C2)CC1C3)c1ccccc1 (centres unmarked) [Example 1, N-2-adamantyl-2-methyl-2-phenylpropanamide]

Metabolism in human liver microsomes (HLM), in words [1]: rapidly metabolized | HLM % turnover [1]: 84%
SMILES: CC(C)(C(=O)NC1C2CC3CC(C2)CC1C3)c1ccc(Cl)cc1 (centres unmarked) [Example 2, N-2-adamantyl-2-(4-chlorophenyl)-2-methylpropanamide]
